# Data published in patent US8999957B2, “Heterocyclic compounds as ERK inhibitors” (Merck Sharp & Dohme Corp., priority 2010, dated 2015).
# Several values for one entry are separate records, joined by “and”; a condition that tells them apart may be missing. Identical values can stand only once.
# Target: fully phosphorylated, mouse aERK2 enzyme (Mus musculus (Mouse), UniProt P63085)
# Test: Active ERK2 (aERK) IMAP-FP assay, condition 2
# Assay type: biochemical
# Details: aERK assay condition 2, 30 uM ATP; read-out: aERK IC50
# Experimental: Active ERK2 (aERK) Assay: (Unless Indicated Otherwise, the Data Provided for aERK was obtained using Condition 1)
# Activated ERK2 activity was determined in an IMAP-FP assay (Molecular Devices). […] Phosphorylation reactions were allowed to proceed for 40-45 minutes and were immediately quenched by the addition of 60 μL IMAP detection beads (1:1000 dilutions) in IMAP binding buffer. Plates were read on EnVision reader after 30 minutes binding equilibration.
# Sequence of fully phosphorylated, mouse aERK2 enzyme (P63085 whole entry): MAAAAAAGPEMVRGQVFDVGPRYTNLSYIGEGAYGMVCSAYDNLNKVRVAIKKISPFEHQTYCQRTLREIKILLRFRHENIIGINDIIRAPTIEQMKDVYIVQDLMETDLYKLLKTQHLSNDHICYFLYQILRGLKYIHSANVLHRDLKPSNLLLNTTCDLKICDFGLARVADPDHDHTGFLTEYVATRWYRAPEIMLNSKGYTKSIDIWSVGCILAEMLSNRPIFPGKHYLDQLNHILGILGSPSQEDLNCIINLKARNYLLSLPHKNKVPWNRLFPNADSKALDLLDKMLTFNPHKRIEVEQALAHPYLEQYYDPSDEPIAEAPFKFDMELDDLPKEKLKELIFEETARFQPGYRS
row,IC50 [nM],SMILES
1,1.1,"COc1cccc(F)c1CN1C[C@H](NC(=O)c2ccc3[nH]nc(-c4ccnc(C)c4)c3c2)CC[C@H]1C(=O)N1CC(C)(O)C1 [N-{(3R,6S)-1-(2-fluoro-6-methoxybenzyl)-6-[(3-hydroxy-3-methylazetidin-1-yl)carbonyl]piperidin-3-yl}-3-(2-methylpyridin-4-yl)-1H-indazole-5-carboxamide]"
2,222,"NC(=O)C(c1c(F)cccc1F)N1CCC[C@@H](NC(=O)c2ccc3[nH]nc(-c4ccncc4)c3c2)C1 (single isomer, unassigned) [drawing 503, N-((R)-1-((R or S)-2-amino-1-(2,6-difluorophenyl)-2-oxoethyl)piperidin-3-yl)-3-(pyridin-4-yl)-1H-indazole-5-carboxamide]"

# More lines, now with the values behind:
row,SMILES,IC50 [nM]
1,"COc1cccc(F)c1CN1C[C@H](NC(=O)c2ccc3[nH]nc(-c4ccnc(C)c4)c3c2)CC[C@H]1C(=O)NC1CC1 [N-[(3R,6S)-6-(cyclopropylcarbamoyl)-1-(2-fluoro-6-methoxybenzyl)piperidin-3-yl]-3-(2-methylpyridin-4-yl)-1H-indazole-5-carboxamide]",3.4
2,COc1cccc(F)c1CN1CCC[C@@H](NC(=O)c2ccc3[nH]nc(C4CCOCC4)c3c2)C1 [N-[(3R)-1-(2-fluoro-6-methoxybenzyl)piperidin-3-yl]-3-(tetrahydro-2H-pyran-4-yl)-1H-indazole-5-carboxamide],195
3,"COc1cccc(F)c1CN1C[C@H](NC(=O)c2ccc3[nH]nc(-c4ccnc(C)c4)c3c2)CC[C@H]1C(=O)NCC1(CO)CCCC1 [N-[(3R,6S)-1-(2-fluoro-6-methoxybenzyl)-6-({[1-(hydroxymethyl)cyclopentyl]methyl}carbamoyl)piperidin-3-yl]-3-(2-methylpyridin-4-yl)-1H-indazole-5-carboxamide]",8.8
4,"COc1cccc(F)c1CN1C[C@H](NC(=O)c2ccc3[nH]nc(-c4ccnc(C)c4)c3c2)CC[C@H]1C(=O)Nc1cccnc1 [N-[(3R,6S)-1-(2-fluoro-6-methoxybenzyl)-6-(pyridin-3-ylcarbamoyl)piperidin-3-yl]-3-(2-methylpyridin-4-yl)-1H-indazole-5-carboxamide]",4.1

# Same assay, conditions: active ERK2; read-out: aErk2 Ic50
row,IC50,SMILES
1,57 nM,"CCCN(C)C(=O)[C@@H]1CC[C@@H](NC(=O)c2ccc3[nH]nc(-c4ccnc(C)c4)c3c2)CN1Cc1c(F)cccc1OC [N-{(3R,6S)-1-(2-fluoro-6-methoxybenzyl)-6-[methyl(propyl)carbamoyl]piperidin-3-yl}-3-(2-methylpyridin-4-yl)-1H-indazole-5-carboxamide]"
2,18.9 nM,"COc1cccc(F)c1CN1C[C@H](NC(=O)c2ccc3[nH]nc(-c4ccnc(C)c4)c3c2)CC[C@H]1C(=O)NCCNC(=O)OC(C)(C)C [tert-butyl [2-({[(2S,5R)-1-(2-fluoro-6-methoxybenzyl)-5-({[3-(2-methylpyridin-4-yl)-1H-indazol-5-yl]carbonyl}amino)piperidin-2-yl]carbonyl}amino)ethyl]carbamate]"

# Continued, molecule first:
row,SMILES,IC50
1,COc1cccc(F)c1CN1C[C@H](NC(=O)c2ccc3[nH]nc(-c4ccnc(C)c4)c3c2)CC[C@H]1C(=O)NC1CCCC1,105 nM
2,"O=C(N[C@@H]1CC[C@@H](C(=O)NCc2ccccc2)N(Cc2ccccc2)C1)c1ccc2[nH]nc(-c3ccncc3)c2c1 [N-[(3R,6S)-1-benzyl-6-(benzylcarbamoyl)piperidin-3-yl]-3-pyridin-4-yl-1H-indazole-5-carboxamide]",47.5 nM
3,"CNC(=S)NNC(=O)[C@@H]1CC[C@@H](NC(=O)c2ccc3[nH]nc(-c4ccnc(C)c4)c3c2)CN1Cc1c(F)cccc1OC [N-[(3R,6S)-1-(2-fluoro-6-methoxybenzyl)-6-{[2-(methylcarbamothioyl)hydrazino]-carbonyl}piperidin-3-yl]-3-(2-methylpyridin-4-yl)-1H-indazole-5-carboxamide]",1 nM
4,"COc1cccc(F)c1CN1C[C@H](NC(=O)c2ccc3[nH]nc(-c4ccnc(C)c4)c3c2)CC[C@H]1C(=O)N1CC(F)(F)C1 [N-[(3R,6S)-6-[(3,3-difluoroazetidin-1-yl)carbonyl]-1-(2-fluoro-6-methoxybenzyl)-piperidin-3-yl]-3-(2-methylpyridin-4-yl)-1H-indazole-5-carboxamide]",14.8 nM and 10.4 nM
